# Assay results as given in patent US12583839B2, “PD-L1 antagonist compound” (ADLAI NORTYE BIOPHARMA CO., LTD., priority 2019, dated 2026).
# pEC50: −log10 of the molar value.
# Target: T1, PD-1/PD-L1 (Homo sapiens, UniProt Q9NZQ7)
# T1 construct: 60535 (PD-1/NFAT-Reporter-Jurkat); host or cells: CHO cells expressing PD-L1; Jurkat cells expressing PD-1
# Experiment: Detection of biological activity of PD-1/PD-L1 signaling inhibition at the cellular level (NFAT luciferase reporter, PD-1/NFAT-Reporter-Jurkat cells co-cultured with TCR activator/PD-L1-CHO cells)
# Type: cell-based
# Settings: PD-1/NFAT-Reporter-Jurkat + TCR activator/PD-L1-CHO co-culture, 6 hours; Atezolizumab as positive control
# In short: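 CHO cells expressing PD-L1 and a TCR activator were seeded overnight at 37° C, pre-treated with compound for 30 minutes, then co-cultured 6 hours with Jurkat cells carrying PD-1 and an NFAT-luciferase reporter. Luminescence was read, and inhibition % was normalised between 0.1% DMSO and about 10 nM atezolizumab controls.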
# T1 sequence (Q9NZQ7 19-290): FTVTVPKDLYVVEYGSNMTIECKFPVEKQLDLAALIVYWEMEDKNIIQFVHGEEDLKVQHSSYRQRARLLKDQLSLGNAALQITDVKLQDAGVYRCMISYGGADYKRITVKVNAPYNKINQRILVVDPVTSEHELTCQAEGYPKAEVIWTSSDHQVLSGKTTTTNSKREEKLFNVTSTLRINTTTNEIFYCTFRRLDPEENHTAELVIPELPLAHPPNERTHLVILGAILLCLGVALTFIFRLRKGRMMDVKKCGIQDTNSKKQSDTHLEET
row,Compound,pEC50
1,COc1cc(Cn2ncc3c(-c4cccc(-c5cc(F)c(CNC[C@@H]6CCC(=O)N6)c(OC)c5)c4Cl)cccc32)c([N+](=O)[O-])cc1CN(C)C12CCC(C(=O)O)(CC1)CC2 [Compound 145],7.29
2,COc1cc(-c2cccc(-c3cccc4c3cnn4Cc3cc(OC)c(CN[C@H]4CC[C@@H](C(=O)O)CC4)cc3Cl)c2Cl)ccc1CNC[C@@H]1CCC(=O)N1 [Compound 59],7.43
3,COc1nc(-c2cccc(-c3cccc4c3cnn4Cc3nc(OC)c(CN(C)C45CCC(C(=O)O)(CC4)CC5)cc3Cl)c2C)ccc1CNC[C@@H]1CCC(=O)N1 [Compound 169],7.23
4,COc1cc(Cn2ncc3c(-c4cccc(-c5ccc(CNC[C@@H]6CCC(=O)N6)c(OC(F)(F)F)c5)c4Cl)cccc32)c(Cl)cc1CN1CC[C@@H](C(=O)O)C1 [Compound 51],6.16
5,N#Cc1cncc(COc2cc(Cn3ncc4c(-c5cccc(-c6ccc(CNC[C@@H]7CCC(=O)N7)cc6)c5F)cccc43)c(Cl)cc2CN[C@@H](CO)C(=O)O)c1 [Compound 12],6.59
6,COc1nc(-c2cccc(-c3cccc4c3cnn4Cc3nc(OC)c(CN(C)C45CCC(C(=O)O)(CC4)CC5)cc3Cl)c2Cl)ccc1CNC[C@@H]1CCC(=O)N1 [Compound 137],7.39
7,COc1cc(Cn2ncc3c(-c4cccc(-c5ccc(CNC[C@@H]6CCC(=O)N6)c(OC)n5)c4Cl)cccc32)c(Cl)cc1CN(C)C12CCC(C(=O)O)(CC1)CC2 [Compound 133],7.09
8,COc1cc(Cn2ncc3c(-c4cccc(-c5ccc(CNC[C@@H]6CCC(=O)N6)cc5)c4Cl)cccc32)c(Cl)cc1CN1CCC[C@H](C(=O)O)C1 [Compound 36],6.34
9,COc1cc(Cn2ncc3c(-c4cccc(-c5ccc(CNC[C@@H]6CCC(=O)N6)c(OC)n5)c4Cl)cccc32)c(Cl)c(F)c1CN(C)C12CCC(C(=O)O)(CC1)CC2 [Compound 157],7.05
10,COc1cc(Cn2ncc3c(-c4cccc(-c5ccc(CNC[C@@H]6CCC(=O)N6)cc5)c4Cl)cccc32)c(C#N)cc1CN[C@@H](CO)C(=O)O [Compound 75],6.85
11,O=C(O)COc1cc(Cn2ncc3c(-c4cccc(-c5ccc(CNC[C@@H]6CCC(=O)N6)cc5)c4Cl)cccc32)c(Cl)cc1CNCCO [Compound 86],6.40
12,CN(CCO[C@H]1CCOC1)Cc1ccc(-c2cccc(-c3cccc4c3cnn4Cc3cc(OCc4cncc(C#N)c4)c(CN[C@@H](CO)C(=O)O)cc3Cl)c2Cl)cc1 [Compound 6],6.64
13,COc1cc(-c2cccc(-c3cccc4c3cnn4Cc3cc(OC)c(CN(C)[C@H]4CC[C@H](C(=O)NS(C)(=O)=O)CC4)cc3Cl)c2Cl)ccc1CNC[C@@H]1CCC(=O)N1 [Compound 129],7.54
14,COc1cc(Cn2ncc3c(-c4cccc(-c5ccc(CNC[C@@H]6CCC(=O)N6)c(OC)n5)c4C)cccc32)c(Cl)cc1CN(C)C12CCC(C(=O)O)(CC1)CC2 [Compound 164],6.98
15,COc1cc(-c2cccc(-c3cccc4c3cnn4Cc3nc(OC)c(CN(C)C45CCC(C(=O)O)(CC4)CC5)cc3Cl)c2Cl)cc(F)c1CNC[C@@H]1CCCC(=O)N1 [Compound 172],7.49
16,COc1cc(Cn2ncc3c(-c4cccc(-c5ccc(CN6CC[C@@H](C(=O)O)C6)c(OC)c5)c4Cl)cccc32)c(Cl)cc1CN1CC[C@@H](O)C1 [Compound 71],6.16
17,COc1cc(Cn2ncc3c(-c4cccc(-c5ccc(CNC[C@@H]6CCC(=O)N6)c(OC)n5)c4Cl)cccc32)c(Cl)cc1CN(C)[C@H]1CC[C@H](C(=O)O)CC1 [Compound 152],7.25
18,COc1cc(Cn2ncc3c(-c4cccc(-c5ccc(CNC[C@@H]6CCC(=O)N6)cc5)c4Cl)cc(Cl)cc32)c(Cl)cc1CN[C@@H](CO)C(=O)O [Compound 117],6.27
19,COc1cc(Cn2ncc3c(-c4cccc(-c5ccc(CN6CC[C@@H](C(=O)O)C6)cc5)c4Cl)cccc32)c(Cl)cc1CN1CC[C@@H](O)C1 [Compound 69],6.09
20,CN1C(=O)CC[C@H]1CNCc1ccc(-c2cccc(-c3cccc4c3cnn4Cc3cc(OCc4cncc(C#N)c4)c(CN[C@@H](CO)C(=O)O)cc3Cl)c2Cl)cc1 [Compound 7],6.79
21,N#Cc1cncc(COc2cc(Cn3ncc4c(-c5cccc(-c6ccc(CN7CC[C@@H](O)C7)cc6)c5Cl)cccc43)c(Cl)cc2CN[C@@H](CO)C(=O)O)c1 [Compound 1],7.08
22,N#Cc1cncc(COc2cc(Cn3ncc4c(-c5cccc(-c6ccc(CNC[C@@H]7CCC(=O)N7)cc6)c5Cl)cccc43)c(Cl)cc2CNCC(=O)O)c1 [Compound 22],7.05
23,N#Cc1cncc(COc2cc(Cn3ncc4c(-c5cccc(-c6ccc(CNC[C@@H]7CCC(=O)N7)cc6)c5)cccc43)c(Cl)cc2CN[C@@H](CO)C(=O)O)c1 [Compound 14],6.47
24,COc1cc(Cn2ncc3c(-c4cccc(-c5ccc(CNC[C@@H]6CCC(=O)N6)cc5)c4Cl)cccc32)c(Cl)cc1CNC1CCC(C(=O)O)CC1 (stereo partly drawn) [Compound 41],6.53

# The remaining lines, values ahead:
row,pEC50,Compound
1,7.42,COc1cc(-c2cccc(-c3cccc4c3cnn4Cc3cc(OC)c(CN(C)[C@H]4CC[C@H](C(=O)O)CC4)cc3Cl)c2Cl)ccc1CNC[C@@H]1CCC(=O)N1 [Compound 57]
2,7.12,COc1cc(Cn2ncc3c(-c4cccc(-c5cc(F)c(CNC[C@@H]6CCC(=O)N6)c(OC)c5)c4C)cccc32)c(Cl)cc1CN(C)C12CCC(C(=O)O)(CC1)CC2 [Compound 161]
3,7.55,COc1cc(-c2cccc(-c3cccc4c3cnn4Cc3cc(OC)c(CN(C)C4CCC(CC(=O)O)CC4)cc3C(F)(F)F)c2Cl)ccc1CNC[C@@H]1CCC(=O)N1 (stereo partly drawn) [Compound 146]
4,7.04,COc1cc(Cn2ncc3c(-c4cccc(-c5ccc(CNC[C@@H]6CCC(=O)N6)c(OC)n5)c4Cl)cccc32)c(Cl)cc1CN(C)CC1CCC(C(=O)O)CC1 (stereo partly drawn) [Compound 91]
5,6.13,COc1cc(Cn2ncc3c(-c4cccc(-c5ccc(CN(C)C[C@@H]6CCC(=O)N6)c(OC)c5)c4Cl)cccc32)c(Cl)cc1CN(C)CC1CCC(C(=O)O)CC1 (stereo partly drawn) [Compound 100]
6,6.87,COc1cc(Cn2ncc3c(-c4cccc(-c5cc(F)c(CNC[C@@H]6CCC(=O)N6)c(OC)c5)c4Cl)cccc32)c(Cl)cc1CN(C)C[C@H]1CC[C@H](CC(=O)O)CC1 [Compound 130]
7,7.64,COc1cc(Cn2ncc3c(-c4cccc(-c5cc(F)c(CNC[C@@H]6CCC(=O)N6)c(OC)c5)c4Cl)cccc32)c(Cl)cc1CN(C)[C@H]1CC[C@H](/C=C/C(=O)O)CC1 [Compound 132]
8,7.36,COc1cc(-c2cccc(-c3cccc4c3cnn4Cc3cc(OC)c(CN(C)[C@H]4CC[C@@H](CC(=O)O)CC4)cc3Cl)c2Cl)ccc1CNC[C@@H]1CCC(=O)N1 [Compound 109]
9,6.30,COc1cc(Cn2ncc3c(-c4cccc(-c5ccc(CNC[C@@H]6CCC(=O)N6)cc5)c4Cl)cccc32)c(Cl)cc1CN(C)CC1CCC(C(=O)O)CC1 (stereo partly drawn) [Compound 47]
10,7.18,COc1cc(-c2cccc(-c3cccc4c3cnn4Cc3cc(OC)c(CN(C)C[C@H]4CC[C@H](C(=O)O)CC4)cc3Cl)c2Cl)ccc1CNC[C@@H]1CCC(=O)N1 [Compound 55]
11,7.43,COc1cc(Cn2ncc3c(-c4cccc(-c5cc(F)c(CNC[C@@H]6CCC(=O)N6)c(OC)c5)c4Cl)cccc32)c([N+](=O)[O-])cc1CN(C)[C@H]1CC[C@H](C(=O)O)CC1 [Compound 142]
12,7.85,COc1cc(Cn2ncc3c(-c4cccc(-c5cc(F)c(CNC[C@@H]6CCC(=O)N6)c(OC)c5)c4Cl)cccc32)c(Cl)cc1CN(C)[C@H]1CC[C@H](C(=O)O)CC1 [Compound 114]
